# Assay results published in US20170306385A1, “METHODS FOR DISCOVERING THERAPEUTICS THAT ALTER THE STABILITY OF TARGET PROTEINS” (Dana-Farber Cancer Institute, Inc., priority 2014, published 2017).
# Where a SMILES comes first, the peptide text is derived from it. The star is where a group is joined. Cbz = O=C(OCc1ccccc1)*
# Tests used:
# Assay type in all cases: cell-based
# fusion protein = test: Western blot confirmation of fusion protein reduction by HSP90 inhibitors
# [1] = system: unfused luciferases (renilla and firefly); test: Stability time course for 7 MYC-luciferase fusion cell lines, unfused (untagged) luciferase
# Experimental: (§1) Seven cell lines were used to measure the half life of the luciferases after blocking all protein synthesis with cyclohexamide. The decay observed for both fused luciferases (MYC-firefly and MYC-nanoluc; FIG. 12B) were compared to the decay observed for the unfused luciferases (renilla and firefly; FIG. 12A) using both the MYC-firefly:renilla and MYC-nanoluc:firefly cell lines 293T, U2OS and the MYC-firefly:renilla cell lines A549, H1299 and LS174T. […] MYC nanoluc half life of approximately 2 hours is longer than MYC-firefly half-life of less than 1 hour and closer to the half-life of untagged firefly. The balanced half-life of MYC-nanoluc and untagged firefly should reduce the number of artefact hits.
# (§2) Seven MYC-luciferase reporter cell lines were used to measure changes in MYC-luciferase expression after blocking the proteasome with MG132. The expression of the unfussed renilla and firefly were unchanged for about 6 hours but decreased after 18 hours to a variable extent among cell lines (FIG. 13B).
# (§3) Seven MYC-luciferase reporter cell lines were used to measure changes in MYC-luciferase expression after inhibition of ubiquitin dependent proteolysis with the neddylation inhibitor MLN-4924 (FIG. 14A-B).
# [2] = system: MYC-luciferase fusion protein; test: Stability time course for 7 MYC-luciferase fusion cell lines, fused (tagged) luciferase; details: for increase in MYC-luciferase fusion protein: all 7 cell lines
# Experimental: as §1, §2, §3
smiles,measurement,setting,value
COc1c(C)cnc(Cn2cnc3c(Cl)nc(N)nc32)c1C [BIIB021],knockdown of protein levels by western blot,fusion protein,confirmed
CC(C)C[C@@H](C=O)NC(=O)[C@H](CC(C)C)NC(=O)[C@H](CC(C)C)NC(=O)OCc1ccccc1 [MG132] (Cbz-Leu-Leu-Leu-aldehyde),expression of unfused renilla and firefly,"[1]; MG132, after 18 hours, variable extent among cell lines",decreased
same,expression of unfused renilla and firefly,"[1]; MG132, for about 6 hours",unchanged
same,increase in luciferase signals of MYC-nanoluc,"[2]; MYC-nanoluc cell lines, MG132",about 4 fold
same,increase in MYC-luciferase fusion protein,"[2]; proteasome blocked with MG132, different time course",≥ 50%
NS(=O)(=O)OC[C@@H]1C[C@@H](n2ccc3c(N[C@H]4CCc5ccccc54)ncnc32)C[C@@H]1O [MLN-4924],expression of unfused renilla and firefly,"[1]; MLN-4924, except for the 293T MYC-firefly:renilla cell line",minimally affected
same,increase in MYC-luciferase fusion protein,"[2]; MLN-4924, typically peaking after 6 hours of treatment",≥ 50%
CC1(C)CC(=O)c2c(C(F)(F)F)nn(-c3ccc(C(N)=O)c(N[C@H]4CC[C@H](OC(=O)CN)CC4)c3)c2C1 [PF-04929113],knockdown of protein levels by western blot,fusion protein,confirmed
